Data published in patent US11330820B2, “Pesticidally active mixtures” (BASF Agrochemical Products B.V., priority 2016, dated 2022).
Where “and” joins values, the source holds several entries; their conditions need not be identical. Identical values can stand only once.

Key:
Type in all cases: in vivo
[1] = system: vetch aphid (Megoura viciae); assay: Control of vetch aphid on broad bean leaf disks, contact or systemic (B.1)
Protocol: For evaluating control of vetch aphid (Megoura viciae) through contact or systemic means the test unit consisted of 24-well-microtiter plates containing broad bean leaf disks. The compounds or mixtures were formulated using a solution containing 75% by weight water and 25% by weight DMSO. Different concentrations of formulated compounds or mixtures were sprayed onto the leaf disks at 2.5 μl, using a custom built micro atomizer, at two replications.
(§1) For experimental mixtures in these tests identical volumes of both mixing partners at the desired concentrations respectively, were mixed together.
After application, the leaf disks were air-dried and 5-8 adult aphids placed on the leaf disks inside the microtiter plate wells. The aphids were then allowed to suck on the treated leaf disks and incubated at 23+1° C., 50+5% RH for 5 days. Aphid mortality and fecundity was then visually assessed.

[2] = system: Greenhouse Whitefly (Trialeurodes vaporariorum); assay: Control of greenhouse whitefly, egg plant leaf disk with white fly eggs (B.5)
Protocol: For evaluating control of Greenhouse Whitefly (Trialeurodes vaporariorum) the test unit consisted of 96-well-microtiter plates containing a leaf disk of egg plant leaf disk with white fly eggs. The compounds or mixtures were formulated using a solution containing 75% by weight water and 25% by weight DMSO. Different concentrations of formulated compounds or mixtures were sprayed onto the insect diet at 2.5 μl, using a custom built micro atomizer, at two replications. For experimental mixtures in these tests identical volumes of both mixing partners at the desired concentrations respectively, were mixed together.
After application, microtiter plates were incubated at 23±1° C., 65±5% RH for 6 days. Mortality of hatched crawlers was then visually assessed.

[3] = system: tobacco budworm (Heliothis virescens); assay: Control of tobacco budworm, insect diet with eggs (B.4)
Protocol: For evaluating control of tobacco budworm (Heliothis virescens) the test unit consisted of 96-well-microtiter plates containing an insect diet and 15-25 H. virescens eggs.
The compounds or mixtures were formulated using a solution containing 75% by weight water and 25% by weight DMSO. Different concentrations of formulated compounds or mixtures were sprayed onto the insect diet at 10 μl, using a custom built micro atomizer, at two replications.
as §1
After application, microtiter plates were incubated at 28+1° C., 80+5% RH for 5 days. Egg and larval mortality was then visually assessed.

[4] = system: green peach aphid (Myzus persicae); assay: Control of green peach aphid through systemic means, artificial diet under membrane (B.2)
Source text: For evaluating control of green peach aphid (Myzus persicae) through systemic means the test unit consisted of 96-well-microtiter plates containing liquid artificial diet under an artificial membrane.
The compounds or mixtures were formulated using a solution containing 75% by weight water and 25% by weight DMSO. Different concentrations of formulated compounds or mixtures were pipetted into the aphid diet, using a custom built pipetter, at two replications.
For experimental mixtures in these tests identical volumes of both mixing partners at the desired concentrations respectively were mixed together.
After application, 5-8 adult aphids were placed on the artificial membrane inside the microtiter plate wells. The aphids were then allowed to suck on the treated aphid diet and incubated at 23±1° C., 50±5% RH for 3 days. Aphid mortality and fecundity was then visually assessed.

[5] = system: boll weevil (Anthonomus grandis); assay: Control of boll weevil, insect diet with eggs (B.3)
Protocol: For evaluating control of boll weevil (Anthonomus grandis) the test unit consisted of 24-well-microtiter plates containing an insect diet and 20-30 A. grandis eggs.
The compounds or mixtures were formulated using a solution containing 75% by weight water and 25% by weight DMSO. Different concentrations of formulated compounds or mixtures were sprayed onto the insect diet at 20 μl, using a custom built micro atomizer, at two replications. For experimental mixtures in these tests identical volumes of both mixing partners at the desired concentrations respectively, were mixed together.
After application, microtiter plates were incubated at 23±1° C., 50±5% RH for 5 days. Egg and larval mortality was then visually assessed.

[6] = 0.8 ppm, aphid mortality and fecundity after 5 days

Compound: CN(C(=O)c1ccccc1)c1cccc(C(=O)Nc2c(Br)cc(C(F)(C(F)(F)F)C(F)(F)F)cc2C(F)(F)F)c1F [compound a), broflanilide]
- Average Control % ([1]; 0.08 ppm, after 5 days): 0%
- Average Control % [1, 6]: 50% and 25%
- Average Control % ([2]; 0 + 0.4 ppm, after 6 days): 0%
- Average Control % ([3]; 0.8 ppm, after 5 days): 0%
- Average Control % ([4]; 0.08 ppm, after 3 days): 0%
- Average Control % ([4]; 0.8 ppm, after 3 days): 25%
- Average Control % ([5]; 0.08 ppm, after 5 days): 25%

Compound: CCS(=O)(=O)c1cccnc1-c1nc2cc(C(F)(F)F)cnc2n1C [II.3-1, 2-(3-ethylsulfonyl-2-pyridyl)-3-methyl-6-(trifluoromethyl)imidazo[4,5-b]pyridine]
- Average Control % ([1]; 10 ppm, after 5 days): 50%
- Average Control % ([2]; 2 + 0 ppm, mortality of hatched crawlers after 6 days): 25%
- Average Control % ([4]; 10 ppm, after 3 days): 37.5%
- Average Control % ([5]; 50 ppm, egg and larval mortality after 5 days): 25%

Compound: CCN1OC[C@@H](NC(=O)c2ccc(C3=NOC(c4cc(Cl)cc(Cl)c4)(C(F)(F)F)C3)cc2C)C1=O (stereo partly drawn) [II.4-1, 4-[5-(3,5-dichlorophenyl)-5-(trifluoromethyl)-4H-isoxazol-3-yl]-N-[(4R)-2-ethyl-3-oxo-isoxazolidin-4-yl]-2-methyl-benzamide]
- Average Control % ([3]; 0.08 ppm, egg and larval mortality after 5 days): 0%
- Average Control % ([4]; 2 ppm, aphid mortality and fecundity after 3 days): 0%

Compound: Cn1nc(C(F)(F)C(F)(F)F)c(C(F)(F)F)c1C(=O)Nc1ccc(Cl)c(C(=O)NCc2ccccc2)c1 [II.1, N-[4-Chloro-3-[[(phenylmethyl)amino]carbonyl]phenyl]-1-methyl-3-(1,1,2,2,2-pentafluoroethyl)-4-(trifluoromethyl)-1H-pyrazole-5-carboxamide]
- Average Control % [1, 6]: 0%
